± gives the standard deviation of the averaged measurements.
Tests used:
Assay in all cases: pIC50, kinobeads binding competition
Conditions in all cases: cell material: Jurkat lysate
AAK1 = AAK1 (UniProt Q2M2I8)
HIPK1 = HIPK1 (UniProt Q86Z02)
INSR = INSR (UniProt P06213)
MAP4K5 = MAP4K5 (UniProt Q9Y4K4)
NEK7 = NEK7 (UniProt Q8TDX7)
STK33 = STK33 (UniProt Q9BYT3)
TYK2 = TYK2 (UniProt P29597)
ULK3 = molecular target: T1, ULK3 (UniProt Q6PHR2)
T1 sequence (whole entry): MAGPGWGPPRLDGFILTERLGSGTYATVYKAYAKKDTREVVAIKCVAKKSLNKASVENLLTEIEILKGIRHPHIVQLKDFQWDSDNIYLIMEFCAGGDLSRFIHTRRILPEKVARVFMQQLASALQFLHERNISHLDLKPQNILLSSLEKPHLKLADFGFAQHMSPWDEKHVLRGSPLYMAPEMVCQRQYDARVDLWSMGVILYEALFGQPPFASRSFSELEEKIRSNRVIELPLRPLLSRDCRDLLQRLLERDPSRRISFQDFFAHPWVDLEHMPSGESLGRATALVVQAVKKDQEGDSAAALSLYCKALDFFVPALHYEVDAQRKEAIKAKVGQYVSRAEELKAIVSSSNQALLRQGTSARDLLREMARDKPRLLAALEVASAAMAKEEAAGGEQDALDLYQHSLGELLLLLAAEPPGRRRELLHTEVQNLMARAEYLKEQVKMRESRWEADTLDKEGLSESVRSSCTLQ

UniProt O15111 = molecular target: T2, UniProt O15111
T2 sequence (whole entry): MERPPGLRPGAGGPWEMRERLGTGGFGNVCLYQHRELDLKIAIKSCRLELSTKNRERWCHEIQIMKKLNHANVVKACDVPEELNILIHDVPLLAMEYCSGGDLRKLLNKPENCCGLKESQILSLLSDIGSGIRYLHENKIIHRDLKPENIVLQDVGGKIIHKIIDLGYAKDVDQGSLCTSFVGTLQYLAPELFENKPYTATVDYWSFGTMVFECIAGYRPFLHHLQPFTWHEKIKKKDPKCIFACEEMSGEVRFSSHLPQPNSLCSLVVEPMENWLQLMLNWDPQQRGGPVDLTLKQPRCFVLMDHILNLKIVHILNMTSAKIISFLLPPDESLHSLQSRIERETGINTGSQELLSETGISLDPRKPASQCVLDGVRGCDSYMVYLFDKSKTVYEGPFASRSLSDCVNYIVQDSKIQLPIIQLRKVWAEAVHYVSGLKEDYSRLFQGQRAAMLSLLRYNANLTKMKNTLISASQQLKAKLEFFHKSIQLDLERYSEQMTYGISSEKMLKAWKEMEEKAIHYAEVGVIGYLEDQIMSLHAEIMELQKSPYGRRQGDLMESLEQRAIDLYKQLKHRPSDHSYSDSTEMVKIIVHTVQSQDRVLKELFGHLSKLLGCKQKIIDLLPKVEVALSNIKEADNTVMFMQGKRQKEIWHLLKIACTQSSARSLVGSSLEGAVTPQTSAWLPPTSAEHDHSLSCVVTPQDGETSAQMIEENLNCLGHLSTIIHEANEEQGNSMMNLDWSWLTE

UniProt O75582 = molecular target: UniProt O75582
UniProt O94768 = molecular target: T3, UniProt O94768
T3 sequence (whole entry): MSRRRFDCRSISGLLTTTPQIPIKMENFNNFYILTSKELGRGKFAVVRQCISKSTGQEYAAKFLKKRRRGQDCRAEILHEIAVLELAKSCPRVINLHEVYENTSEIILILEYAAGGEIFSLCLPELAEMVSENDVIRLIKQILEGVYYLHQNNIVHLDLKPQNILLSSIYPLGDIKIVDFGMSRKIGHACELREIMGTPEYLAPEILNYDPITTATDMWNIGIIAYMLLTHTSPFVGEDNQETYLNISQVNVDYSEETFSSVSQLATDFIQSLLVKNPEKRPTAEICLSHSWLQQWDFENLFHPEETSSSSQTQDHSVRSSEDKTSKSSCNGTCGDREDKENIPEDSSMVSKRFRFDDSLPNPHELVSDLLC

UniProt O95747 = molecular target: UniProt O95747
UniProt Q14004 = molecular target: UniProt Q14004
UniProt Q16659 = molecular target: UniProt Q16659
UniProt Q8TF76 = molecular target: T4, UniProt Q8TF76
T4 sequence (whole entry): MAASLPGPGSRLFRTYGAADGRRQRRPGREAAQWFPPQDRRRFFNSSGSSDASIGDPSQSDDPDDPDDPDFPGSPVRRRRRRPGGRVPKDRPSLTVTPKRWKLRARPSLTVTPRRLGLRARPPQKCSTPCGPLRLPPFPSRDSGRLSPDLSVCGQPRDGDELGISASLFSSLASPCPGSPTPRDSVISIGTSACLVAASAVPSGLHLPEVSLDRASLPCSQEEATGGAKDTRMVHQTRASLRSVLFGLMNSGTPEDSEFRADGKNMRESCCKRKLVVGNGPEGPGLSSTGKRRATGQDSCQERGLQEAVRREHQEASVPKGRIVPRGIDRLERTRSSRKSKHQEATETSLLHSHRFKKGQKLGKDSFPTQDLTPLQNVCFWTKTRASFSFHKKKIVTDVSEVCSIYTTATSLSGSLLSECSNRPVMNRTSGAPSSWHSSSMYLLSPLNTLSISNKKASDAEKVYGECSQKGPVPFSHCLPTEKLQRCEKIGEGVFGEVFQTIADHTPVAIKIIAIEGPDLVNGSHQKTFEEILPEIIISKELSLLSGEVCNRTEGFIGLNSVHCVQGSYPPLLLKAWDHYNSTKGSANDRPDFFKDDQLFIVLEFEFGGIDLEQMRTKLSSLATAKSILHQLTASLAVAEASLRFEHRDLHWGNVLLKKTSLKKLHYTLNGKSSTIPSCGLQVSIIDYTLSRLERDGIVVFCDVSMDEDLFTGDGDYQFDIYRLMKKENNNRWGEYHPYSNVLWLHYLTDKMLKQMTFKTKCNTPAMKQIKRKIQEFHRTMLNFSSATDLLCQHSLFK

Chain of UniProt Q14004 (Q14004 whole entry, looked up): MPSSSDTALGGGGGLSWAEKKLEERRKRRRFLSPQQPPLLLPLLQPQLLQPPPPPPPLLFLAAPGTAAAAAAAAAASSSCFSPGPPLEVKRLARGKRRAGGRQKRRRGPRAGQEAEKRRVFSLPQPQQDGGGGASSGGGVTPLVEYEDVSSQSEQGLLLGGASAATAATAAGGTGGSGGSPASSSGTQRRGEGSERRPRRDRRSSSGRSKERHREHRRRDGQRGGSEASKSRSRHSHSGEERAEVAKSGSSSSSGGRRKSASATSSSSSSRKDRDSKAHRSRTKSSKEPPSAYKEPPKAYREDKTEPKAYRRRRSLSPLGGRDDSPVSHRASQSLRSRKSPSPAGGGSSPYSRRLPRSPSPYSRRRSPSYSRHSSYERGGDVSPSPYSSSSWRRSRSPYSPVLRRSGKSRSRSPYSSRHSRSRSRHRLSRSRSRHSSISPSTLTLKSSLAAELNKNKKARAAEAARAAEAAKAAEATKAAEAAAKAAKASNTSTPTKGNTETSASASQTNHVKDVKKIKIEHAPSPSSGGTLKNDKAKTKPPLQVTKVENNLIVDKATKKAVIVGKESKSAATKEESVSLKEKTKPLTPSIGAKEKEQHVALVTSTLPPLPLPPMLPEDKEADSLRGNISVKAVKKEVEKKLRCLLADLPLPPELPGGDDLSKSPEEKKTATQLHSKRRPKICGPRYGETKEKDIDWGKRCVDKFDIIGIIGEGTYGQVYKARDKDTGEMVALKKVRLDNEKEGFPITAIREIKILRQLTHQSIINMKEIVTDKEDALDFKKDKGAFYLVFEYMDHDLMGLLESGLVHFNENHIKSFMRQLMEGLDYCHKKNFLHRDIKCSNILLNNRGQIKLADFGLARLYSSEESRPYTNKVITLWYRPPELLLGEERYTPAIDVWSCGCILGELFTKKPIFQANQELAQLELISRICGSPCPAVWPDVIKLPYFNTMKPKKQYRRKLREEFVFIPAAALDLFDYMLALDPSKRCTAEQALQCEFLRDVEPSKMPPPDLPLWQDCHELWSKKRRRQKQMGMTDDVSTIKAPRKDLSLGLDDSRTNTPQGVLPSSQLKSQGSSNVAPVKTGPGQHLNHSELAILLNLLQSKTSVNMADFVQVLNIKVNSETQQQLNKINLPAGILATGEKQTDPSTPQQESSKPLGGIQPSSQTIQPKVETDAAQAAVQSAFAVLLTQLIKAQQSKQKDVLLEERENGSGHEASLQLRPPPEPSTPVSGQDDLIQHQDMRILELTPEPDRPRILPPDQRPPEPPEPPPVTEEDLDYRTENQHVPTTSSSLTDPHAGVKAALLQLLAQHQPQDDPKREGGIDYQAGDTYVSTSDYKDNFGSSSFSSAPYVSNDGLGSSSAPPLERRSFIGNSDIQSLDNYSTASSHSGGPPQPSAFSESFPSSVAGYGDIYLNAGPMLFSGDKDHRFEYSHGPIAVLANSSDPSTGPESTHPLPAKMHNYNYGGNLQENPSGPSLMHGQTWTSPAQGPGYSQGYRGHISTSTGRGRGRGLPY
Chain of UniProt O95747 (O95747 whole entry, looked up): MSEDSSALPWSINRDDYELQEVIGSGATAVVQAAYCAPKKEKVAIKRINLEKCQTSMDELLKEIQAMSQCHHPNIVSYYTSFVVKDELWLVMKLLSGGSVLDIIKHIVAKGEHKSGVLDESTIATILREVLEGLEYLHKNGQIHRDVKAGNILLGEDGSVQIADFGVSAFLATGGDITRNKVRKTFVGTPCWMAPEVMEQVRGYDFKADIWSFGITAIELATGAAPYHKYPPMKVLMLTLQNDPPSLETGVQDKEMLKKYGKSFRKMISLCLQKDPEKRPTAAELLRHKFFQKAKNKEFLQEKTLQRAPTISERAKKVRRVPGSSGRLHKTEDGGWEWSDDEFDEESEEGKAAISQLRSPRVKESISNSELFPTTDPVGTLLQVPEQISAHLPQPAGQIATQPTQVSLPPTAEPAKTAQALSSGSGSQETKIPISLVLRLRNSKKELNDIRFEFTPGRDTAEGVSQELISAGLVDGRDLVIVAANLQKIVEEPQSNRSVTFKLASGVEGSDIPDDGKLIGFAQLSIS
Chain of TYK2 (P29597 whole entry): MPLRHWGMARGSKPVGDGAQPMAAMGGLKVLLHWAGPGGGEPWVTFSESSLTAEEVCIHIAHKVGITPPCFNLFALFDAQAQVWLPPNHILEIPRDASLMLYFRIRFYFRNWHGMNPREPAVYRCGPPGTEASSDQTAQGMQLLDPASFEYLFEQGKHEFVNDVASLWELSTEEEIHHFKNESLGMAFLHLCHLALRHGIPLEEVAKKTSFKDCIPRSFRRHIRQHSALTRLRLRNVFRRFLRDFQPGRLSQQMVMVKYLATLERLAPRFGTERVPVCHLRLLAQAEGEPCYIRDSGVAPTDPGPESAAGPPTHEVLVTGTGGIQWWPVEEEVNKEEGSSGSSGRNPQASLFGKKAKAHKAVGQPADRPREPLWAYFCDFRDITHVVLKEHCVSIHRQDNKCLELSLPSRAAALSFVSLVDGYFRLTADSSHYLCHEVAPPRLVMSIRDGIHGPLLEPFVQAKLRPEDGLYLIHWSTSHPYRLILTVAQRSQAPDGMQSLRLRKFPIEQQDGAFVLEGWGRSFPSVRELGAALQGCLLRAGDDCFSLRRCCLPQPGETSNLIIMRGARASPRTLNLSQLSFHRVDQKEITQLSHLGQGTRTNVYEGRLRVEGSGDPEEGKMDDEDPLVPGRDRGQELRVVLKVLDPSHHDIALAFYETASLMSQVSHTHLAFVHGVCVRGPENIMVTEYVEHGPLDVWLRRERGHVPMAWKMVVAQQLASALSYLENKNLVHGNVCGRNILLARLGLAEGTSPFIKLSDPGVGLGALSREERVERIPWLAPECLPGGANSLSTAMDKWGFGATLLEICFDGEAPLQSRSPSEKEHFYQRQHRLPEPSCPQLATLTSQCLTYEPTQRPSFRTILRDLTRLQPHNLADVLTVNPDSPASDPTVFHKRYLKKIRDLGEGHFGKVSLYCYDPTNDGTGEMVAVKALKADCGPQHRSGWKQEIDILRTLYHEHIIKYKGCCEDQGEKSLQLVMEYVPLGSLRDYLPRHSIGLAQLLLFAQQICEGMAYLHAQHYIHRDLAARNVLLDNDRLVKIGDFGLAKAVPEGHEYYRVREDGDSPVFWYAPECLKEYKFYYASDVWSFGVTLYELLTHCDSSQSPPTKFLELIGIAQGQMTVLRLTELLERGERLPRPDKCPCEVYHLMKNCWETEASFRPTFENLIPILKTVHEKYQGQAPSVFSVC
Chain of HIPK1 (Q86Z02 whole entry, looked up): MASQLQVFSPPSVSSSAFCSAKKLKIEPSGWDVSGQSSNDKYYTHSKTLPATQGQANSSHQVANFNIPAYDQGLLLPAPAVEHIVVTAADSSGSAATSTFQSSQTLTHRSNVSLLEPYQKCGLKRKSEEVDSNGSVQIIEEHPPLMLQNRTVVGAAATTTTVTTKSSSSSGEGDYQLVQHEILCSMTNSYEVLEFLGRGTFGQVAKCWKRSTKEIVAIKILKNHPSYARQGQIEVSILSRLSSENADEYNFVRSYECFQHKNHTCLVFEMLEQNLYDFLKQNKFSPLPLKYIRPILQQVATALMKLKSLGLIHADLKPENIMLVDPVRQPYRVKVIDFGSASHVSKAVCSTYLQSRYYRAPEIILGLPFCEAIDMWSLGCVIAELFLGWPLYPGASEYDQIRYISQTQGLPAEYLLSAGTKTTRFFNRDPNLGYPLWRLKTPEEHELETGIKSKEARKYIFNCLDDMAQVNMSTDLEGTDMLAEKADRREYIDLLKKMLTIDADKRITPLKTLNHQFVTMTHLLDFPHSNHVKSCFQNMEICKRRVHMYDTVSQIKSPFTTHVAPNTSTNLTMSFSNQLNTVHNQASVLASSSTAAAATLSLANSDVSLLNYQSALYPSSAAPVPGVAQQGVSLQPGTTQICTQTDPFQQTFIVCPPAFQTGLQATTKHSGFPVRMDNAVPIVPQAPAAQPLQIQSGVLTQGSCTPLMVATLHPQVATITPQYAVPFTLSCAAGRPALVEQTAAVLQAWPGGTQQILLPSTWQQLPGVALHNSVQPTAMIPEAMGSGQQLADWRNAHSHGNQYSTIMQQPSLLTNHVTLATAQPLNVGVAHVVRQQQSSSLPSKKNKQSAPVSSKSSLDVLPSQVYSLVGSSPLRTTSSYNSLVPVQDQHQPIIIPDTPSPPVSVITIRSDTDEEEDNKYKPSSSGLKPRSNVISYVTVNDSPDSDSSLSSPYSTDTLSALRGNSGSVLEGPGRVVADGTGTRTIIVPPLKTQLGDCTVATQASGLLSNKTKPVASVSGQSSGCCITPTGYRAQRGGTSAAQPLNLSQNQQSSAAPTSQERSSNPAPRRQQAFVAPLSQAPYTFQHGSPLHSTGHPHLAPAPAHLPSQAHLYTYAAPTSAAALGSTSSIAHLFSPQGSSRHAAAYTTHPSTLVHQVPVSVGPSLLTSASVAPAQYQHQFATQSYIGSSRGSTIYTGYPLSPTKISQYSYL
Chain of STK33 (Q9BYT3 whole entry, looked up): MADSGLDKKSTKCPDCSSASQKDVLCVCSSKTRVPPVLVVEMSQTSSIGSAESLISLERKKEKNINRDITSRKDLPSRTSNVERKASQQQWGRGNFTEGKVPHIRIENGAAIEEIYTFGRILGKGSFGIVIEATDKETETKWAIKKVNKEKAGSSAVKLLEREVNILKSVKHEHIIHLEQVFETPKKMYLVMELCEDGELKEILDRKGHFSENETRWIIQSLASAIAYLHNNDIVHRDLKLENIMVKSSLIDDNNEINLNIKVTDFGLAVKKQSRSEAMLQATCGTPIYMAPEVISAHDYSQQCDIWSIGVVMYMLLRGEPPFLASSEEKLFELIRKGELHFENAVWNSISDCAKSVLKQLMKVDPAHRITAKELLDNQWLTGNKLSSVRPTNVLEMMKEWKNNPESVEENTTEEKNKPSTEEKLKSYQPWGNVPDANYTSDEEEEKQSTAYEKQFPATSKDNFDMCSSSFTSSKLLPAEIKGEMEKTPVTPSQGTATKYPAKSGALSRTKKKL

Which results are given for CCc1cnn2c(NCc3ccc[n+]([O-])c3)cc(N3CCCC[C@H]3CCO)nc12 [dinaciclib]?
pIC50 (AAK1): < 4.52; pIC50 (HIPK1): 4.77; pIC50 (INSR): < 4.52; pIC50 (MAP4K5): < 4.52; pIC50 (NEK7): < 4.52; pIC50 (STK33): < 4.52; pIC50 (TYK2): < 4.52; pIC50 (ULK3): < 4.52; pIC50 (UniProt O15111): < 4.52; pIC50 (UniProt O75582): < 4.52; pIC50 (UniProt O94768): < 4.52; pIC50 (UniProt O95747): < 4.52; pIC50 (UniProt Q14004): 7.42 ± 0.28; pIC50 (UniProt Q16659): < 4.52; pIC50 (UniProt Q8TF76): < 4.52
